Assays:
wild poinsettia [1] = experiment: Test E postemergence; type: in vivo, Euphorbia heterophylla
Summary of the method: (§1)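 Response was scored visually on a 0-100 scale (100 = complete control) versus controls after 14 to 21 days in the greenhouse. Test chemicals, formulated with surfactant in a non-phytotoxic solvent mixture, had been applied preemergence to seeds in silt loam soil or postemergence to 1- to 4-leaf plants in potting medium.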

corn = experiment: Test C preemergence; type: in vivo, Zea mays
Summary of the method: (§2)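 Visual injury score versus untreated controls, 0 = no effect, 100 = complete control, taken 13 to 15 days after treatment in the greenhouse. Pre-emergence pots held loam/sand; post-emergence plants grew in sphagnum peat/vermiculite mix and were sprayed at the 1- to 4-leaf stage.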

wild poinsettia [2] = experiment: Test E preemergence; type: in vivo, Euphorbia heterophylla; details: for Poinsettia, Wild plant response rating: scale 0 to 100 (0 no effect, 100 complete control); for Plant response rating, Poinsettia, Wild: scale 0 to 100, 0 no effect, 100 complete control
Summary of the method: as §1

morningglory = experiment: Test C preemergence; type: in vivo, Ipomoea coccinea
Summary of the method: as §2

dayflower = experiment: Test E postemergence; type: in vivo, Commelina virginica
Summary of the method: as §1

johnsongrass = experiment: Test E preemergence; type: in vivo, Sorghum halepense; details: for Johnsongrass plant response rating: scale 0 to 100 (0 no effect, 100 complete control); for Plant response rating, Johnsongrass: scale 0 to 100, 0 no effect, 100 complete control
Summary of the method: as §1

field bindweed = experiment: Test E postemergence; type: in vivo, Convolvulus arvensis
Summary of the method: as §1

[3] = Postemergence, 31 g ai/ha, scale 0 to 100
[4] = Postemergence, 62 g ai/ha, scale 0 to 100
[5] = Postemergence, 125 g ai/ha, scale 0 to 100
[6] = Postemergence, 250 g ai/ha, scale 0 to 100
[7] = postemergence, 16 g ai/ha, scale 0 to 100, 0 no effect, 100 complete control
[8] = 125 g ai/ha, preemergence, scale 0 (no effect) to 100 (complete control)
[9] = 250 g ai/ha, preemergence, scale 0 (no effect) to 100 (complete control)
[10] = Preemergence, 62 g ai/ha, scale 0 to 100, 0 no effect, 100 complete control
[11] = 62 g ai/ha, preemergence, scale 0 (no effect) to 100 (complete control)

## N#Cc1cccc(Oc2ncc(Cl)cn2)c1-n1cc(Br)cn1 [Compound 52, 2-(4-bromo-1H-pyrazol-1-yl)-3-[(5-chloro-2-pyrimidinyl)oxy]benzonitrile]
Wild poinsettia [1]; Euphorbia heterophylla, post-emergence, Postemergence, 31 g ai/ha, scale 0 to 100, read-out: Plant response rating, Poinsettia, Wild
  pest or weed control at 31 g/ha: 40%
Wild poinsettia [1]; Euphorbia heterophylla, post-emergence, Postemergence, 62 g ai/ha, scale 0 to 100, read-out: Plant response rating, Poinsettia, Wild
  pest or weed control at 62 g/ha: 50%
Wild poinsettia [1]; Euphorbia heterophylla, post-emergence, Postemergence, 125 g ai/ha, scale 0 to 100, read-out: Plant response rating, Poinsettia, Wild
  pest or weed control at 125 g/ha: 70%
Wild poinsettia [1]; Euphorbia heterophylla, post-emergence, postemergence, 16 g ai/ha, scale 0 to 100, 0 no effect, 100 complete control, read-out: Plant response rating, Poinsettia, Wild
  pest or weed control at 16 g/ha: 45%
corn; Zea mays, pre-emergence, 62 g ai/ha, preemergence, scale 0 (no effect) to 100 (complete control), read-out: Corn plant response rating
  plant injury at 62 g/ha: 5%
corn; Zea mays, pre-emergence, 125 g ai/ha, preemergence, scale 0 (no effect) to 100 (complete control), read-out: Corn plant response rating
  plant injury at 125 g/ha: 60%
corn; Zea mays, pre-emergence, 250 g ai/ha, preemergence, scale 0 (no effect) to 100 (complete control), read-out: Corn plant response rating
  plant injury at 250 g/ha: 70%
corn; Zea mays, pre-emergence, Preemergence, 31 g ai/ha, scale 0 to 100, 0 no effect, 100 complete control
  Corn plant response rating (crop injury, 0 = no effect, 100 = complete kill) at 31 g/ha: 5%
Wild poinsettia [2]; 16 g ai/ha
  Poinsettia, Wild plant response rating: 0
Wild poinsettia [2]; 31 g ai/ha
  Poinsettia, Wild plant response rating: 0
Wild poinsettia [2]; 62 g ai/ha
  Poinsettia, Wild plant response rating: 25
Wild poinsettia [2]; 125 g ai/ha
  Plant response rating, Poinsettia, Wild: 50
Wild poinsettia [2]; 250 g ai/ha
  Plant response rating, Poinsettia, Wild: 100
morningglory; Ipomoea, pre-emergence, 62 g ai/ha, preemergence, scale 0 (no effect) to 100 (complete control), read-out: Morningglory plant response rating
  pest or weed control at 62 g/ha: 95%
morningglory; Ipomoea, pre-emergence, 125 g ai/ha, preemergence, scale 0 (no effect) to 100 (complete control), read-out: Morningglory plant response rating
  pest or weed control at 125 g/ha: 100%
morningglory; Ipomoea, pre-emergence, 250 g ai/ha, preemergence, scale 0 (no effect) to 100 (complete control), read-out: Morningglory plant response rating
  pest or weed control at 250 g/ha: 100%
morningglory; Ipomoea, pre-emergence, Preemergence, 31 g ai/ha, scale 0 to 100, 0 no effect, 100 complete control, read-out: Plant response rating, Morningglory
  pest or weed control at 31 g/ha: 55%
dayflower; Commelina virginica, post-emergence, Postemergence, 31 g ai/ha, scale 0 to 100, read-out: Plant response rating, Dayflower, VA
  pest or weed control at 31 g/ha: 40%
dayflower; Commelina virginica, post-emergence, Postemergence, 62 g ai/ha, scale 0 to 100, read-out: Plant response rating, Dayflower, VA
  pest or weed control at 62 g/ha: 50%
dayflower; Commelina virginica, post-emergence, Postemergence, 125 g ai/ha, scale 0 to 100, read-out: Plant response rating, Dayflower, VA
  pest or weed control at 125 g/ha: 60%
dayflower; Commelina virginica, post-emergence, postemergence, 16 g ai/ha, scale 0 to 100, 0 no effect, 100 complete control, read-out: Plant response rating, Dayflower, VA
  pest or weed control at 16 g/ha: 30%
johnsongrass; 16 g ai/ha
  Johnsongrass plant response rating: 0
johnsongrass; 31 g ai/ha
  Johnsongrass plant response rating: 0
johnsongrass; 62 g ai/ha
  Johnsongrass plant response rating: 30
johnsongrass; 125 g ai/ha
  Plant response rating, Johnsongrass: 70
johnsongrass; 250 g ai/ha
  Plant response rating, Johnsongrass: 98
Field bindweed; Convolvulus arvensis, post-emergence, Postemergence, 31 g ai/ha, scale 0 to 100, read-out: Plant response rating, Field Bindweed
  pest or weed control at 31 g/ha: 50%
Field bindweed; Convolvulus arvensis, post-emergence, Postemergence, 62 g ai/ha, scale 0 to 100, read-out: Plant response rating, Field Bindweed
  pest or weed control at 62 g/ha: 65%
Field bindweed; Convolvulus arvensis, post-emergence, Postemergence, 125 g ai/ha, scale 0 to 100, read-out: Plant response rating, Field Bindweed
  pest or weed control at 125 g/ha: 65%
Field bindweed; Convolvulus arvensis, post-emergence, postemergence, 16 g ai/ha, scale 0 to 100, 0 no effect, 100 complete control, read-out: Plant response rating, Field Bindweed
  pest or weed control at 16 g/ha: 50%

## N#Cc1cnn(-c2c(C#N)cccc2Oc2ncc(Cl)cn2)c1 [Compound 200]
Wild poinsettia [1]; [3]
  Plant response rating, Poinsettia, Wild: 80
Wild poinsettia [1]; [4]
  Plant response rating, Poinsettia, Wild: 70
Wild poinsettia [1]; [5]
  Plant response rating, Poinsettia, Wild: 90
Wild poinsettia [1]; [6]
  Plant response rating, Poinsettia, Wild: 90
Wild poinsettia [1]; [7]
  Plant response rating, Poinsettia, Wild: 50
corn; [8]
  Corn plant response rating: 60
corn; [9]
  Corn plant response rating: 75
corn; [10]
  Plant response rating, Corn: 5
Wild poinsettia [2]; 31 g ai/ha
  Poinsettia, Wild plant response rating: 50
Wild poinsettia [2]; 62 g ai/ha
  Poinsettia, Wild plant response rating: 50
Wild poinsettia [2]; 125 g ai/ha
  Plant response rating, Poinsettia, Wild: 90
Wild poinsettia [2]; 250 g ai/ha
  Plant response rating, Poinsettia, Wild: 95
morningglory; [8]
  Morningglory plant response rating: 98
morningglory; [9]
  Morningglory plant response rating: 98
morningglory; [10]
  Plant response rating, Morningglory: 95
dayflower; [3]
  Plant response rating, Dayflower, VA: 25
dayflower; [4]
  Plant response rating, Dayflower, VA: 40
dayflower; [5]
  Plant response rating, Dayflower, VA: 60
dayflower; [6]
  Plant response rating, Dayflower, VA: 70
dayflower; [7]
  Plant response rating, Dayflower, VA: 15
johnsongrass; 31 g ai/ha
  Johnsongrass plant response rating: 15
johnsongrass; 62 g ai/ha
  Johnsongrass plant response rating: 25
johnsongrass; 125 g ai/ha
  Plant response rating, Johnsongrass: 30
johnsongrass; 250 g ai/ha
  Plant response rating, Johnsongrass: 75
Field bindweed; [3]
  Plant response rating, Field Bindweed: 70
Field bindweed; [4]
  Plant response rating, Field Bindweed: 90
Field bindweed; [5]
  Plant response rating, Field Bindweed: 95
Field bindweed; [6]
  Plant response rating, Field Bindweed: 95
Field bindweed; [7]
  Plant response rating, Field Bindweed: 70

## N#Cc1cccc(Oc2ncc(Cl)cn2)c1-n1cc(Cl)cn1 [Compound 72]
Wild poinsettia [1]; [4]
  Plant response rating, Poinsettia, Wild: 55
Wild poinsettia [1]; [5]
  Plant response rating, Poinsettia, Wild: 60
corn; [11]
  Corn plant response rating: 25
corn; [8]
  Corn plant response rating: 65
corn; [9]
  Corn plant response rating: 65
Wild poinsettia [2]; 16 g ai/ha
  Poinsettia, Wild plant response rating: 15
Wild poinsettia [2]; 31 g ai/ha
  Poinsettia, Wild plant response rating: 5
Wild poinsettia [2]; 62 g ai/ha
  Poinsettia, Wild plant response rating: 15
Wild poinsettia [2]; 125 g ai/ha
  Plant response rating, Poinsettia, Wild: 70
Wild poinsettia [2]; 250 g ai/ha
  Plant response rating, Poinsettia, Wild: 70
morningglory; [11]
  Morningglory plant response rating: 85
morningglory; [8]
  Morningglory plant response rating: 100
morningglory; [9]
  Morningglory plant response rating: 100
morningglory; Preemergence, 31 g ai/ha, scale 0 to 100, 0 no effect, 100 complete control
  Plant response rating, Morningglory: 15
dayflower; [4]
  Plant response rating, Dayflower, VA: 50
dayflower; [5]
  Plant response rating, Dayflower, VA: 60
johnsongrass; 16 g ai/ha
  Johnsongrass plant response rating: 0
johnsongrass; 31 g ai/ha
  Johnsongrass plant response rating: 0
johnsongrass; 62 g ai/ha
  Johnsongrass plant response rating: 40
johnsongrass; 125 g ai/ha
  Plant response rating, Johnsongrass: 95
johnsongrass; 250 g ai/ha
  Plant response rating, Johnsongrass: 98
Field bindweed; [4]
  Plant response rating, Field Bindweed: 70
Field bindweed; [5]
  Plant response rating, Field Bindweed: 80
